# Data: patent publication US20060166310A1, “Serotonin receptor” (Inpharmatica Ltd., priority 2002, published 2006)
# Legend:
# INPIONCH1 = target: T1, INPIONCH1 (Homo sapiens, UniProt Q401N2); test: Whole cell patch-clamp of HEK293 cells transfected with INPIONCH1; format: cell-based; conditions: for activation of current on application: cells transfected with INPIONCH1
# T1 construct: V5 (C); His (C); expressed in transfected cells; host or cells: HEK293
# T1 sequence (Q401N2 2-412): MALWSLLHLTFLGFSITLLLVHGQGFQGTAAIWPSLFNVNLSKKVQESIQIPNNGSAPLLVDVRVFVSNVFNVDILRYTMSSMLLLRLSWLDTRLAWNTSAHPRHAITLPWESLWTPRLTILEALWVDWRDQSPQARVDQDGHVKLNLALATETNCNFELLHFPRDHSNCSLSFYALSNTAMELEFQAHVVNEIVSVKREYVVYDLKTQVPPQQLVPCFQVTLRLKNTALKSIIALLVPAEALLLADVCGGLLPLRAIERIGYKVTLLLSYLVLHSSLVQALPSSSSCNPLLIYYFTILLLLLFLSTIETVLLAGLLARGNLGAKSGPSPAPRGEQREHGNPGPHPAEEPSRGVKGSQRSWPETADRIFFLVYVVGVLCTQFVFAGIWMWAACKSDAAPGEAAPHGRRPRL
# From the text: Cells were clamped at −80 mV or −60 mV. Drugs were applied by pressure ejection from modified micropipettes.
# HEK293 cells = conditions: 1 mM
# Protocol: To overcome these difficulties, HEK293 cells were transfected with either INPIONCH1 or one of the two chimeras (IS67 or IS68) and subsequently placed under selection pressure. Following transfection, positively expressing cells were selected by treatment with 1 mM neomycin and only cells that grew under these conditions were used to determine the electrophysiological characteristics of the various expressed clones.
structure (smiles),measurement,setting,value
"NCCc1c[nH]c2ccc(O)cc12 [5-HT, serotonin]",current on application of 5-HT,"INPIONCH1; 10 μM, HEK293 cells expressing INPIONCH1",inward current
same,response following a second application (desensitisation),"INPIONCH1; second application of 5-HT, stated for 'the channels'",minimal or absent
same,reversal potential of 5-HT-induced current,INPIONCH1; voltage ramps -90 to +90 mV before and after 5-HT application,about 0 mV
same,induction of currents before and after application of zinc sulphate,INPIONCH1; zinc sulphate 1 mM,able to induce currents
COc1cc2c3cc1Oc1cc(ccc1O)C[C@@H]1c4c(cc(OC)c(O)c4Oc4ccc(cc4)C[C@@H]3N(C)CC2)CC[N+]1(C)C [Tubocurarine],effect on the 5-HT induced channel,INPIONCH1,no effect
same,effect on the leak channel,INPIONCH1,no effect
CC(=O)OCC[N+](C)(C)C [acteylcholine],activation of current on application,INPIONCH1,appeared not to activate current
CN1CCCC1c1cccnc1 (stereo not shown) [nicotine],activation of current on application,INPIONCH1,appeared not to activate current
same,effect on outward current recorded at positive potentials,INPIONCH1; in some cells,appeared to block outward current
NC[C@H](O)c1ccc(O)c(O)c1 [noradrenaline],activation of current on application,INPIONCH1,appeared not to activate current
O=S(=O)([O-])[O-].[Zn+2] [zinc sulphate],zinc activated current,INPIONCH1; zinc sulphate application,no consistent specific zinc activated current was observed
same,effect on amplitude of the current in response to 5-HT,INPIONCH1; zinc sulphate applied to the cells,appeared to reduce the amplitude
same,toxicity to the cells,HEK293 cells,appeared to be toxic
